Molecular target: cAMP-dependent protein kinase catalytic subunit alpha (Bos taurus, UniProt P00517)
Test: PKA In Vitro Enzyme Assay
Settings: pH 7.2; 22 °C
Experimental: The recombinant alpha catalytic subunit of bovine PKA was assayed with a peptide substrate and test compound in the presence of 40 uM ATP/ [gamma-33P]ATP in 96-well plates. […] IC50 values were determined from an eight-point concentration range run in duplicate and calculated in GraphPad Prism 4.00.

Cc1n[nH]c2ccc(-c3cncc(OC[C@@H](N)Cc4c[nH]c5ccccc45)c3)cc12 [5-{5-[(2S)-2-amino-3-(1H-indol-3-yl)propoxy]pyridin-3-yl}-3-methyl-1H-indazole]
IC50: 27 nM

From BindingDB's records for doi:10.1016/j.jmb.2007.01.004 (Astex Therapeutics, 2007)
